Patent US20220054476A1, “SUSTAINED LOCAL DRUG LEVELS FOR INNATE IMMUNE AGONISTS” (Ascendis Pharma Oncology Division A/S, priority 2019, published 2022)
Marks after values point to notes of the source that are not given here.

Assays:
[1] = system: IFNγ, IL-6, CCL2/MCP-1, TNFα in plasma; assay: In vivo cytokine induction, plasma cytokine levels (Example 12); parameters: species or system BALB/C mice; settings: for IFNγ plasma level, Mean: values at/below LLOQ set to 0.01
Protocol: Mice were subcutaneously implanted with 3×10^5 CT26 tumor cells in the left and right flanks. […] Hydrogels were administered as suspensions in PBST buffer. K2 EDTA-preserved blood samples were collected by retro-orbital bleed at various time points following drug administration and plasma was isolated following centrifugation at 2000×g for 5 minutes at 4° C. and frozen. Plasma samples were stored at −80° C. Plasma was thawed and undiluted samples were assessed for cytokine levels using the 36-Plex Mouse ProcartaPlex™ Cytokine Panel 1A (ThermoFisher Scientific) following manufacturer's recommendations. Cytokines were measured on the Bio-Plex 200 (BioRad) following kit instructions.

[2] = system: Ly-6C^+ antigen presenting cells, MHCII^+ antigen presenting cells, CD8^+, Ly-6C^+ CD8^+ and CD4^+ T cells of tumor draining lymph nodes; assay: Flow cytometric profiling of tumor draining lymph node immune cells (Example 15); type: in vivo, BALB/C mice; settings: 7 days after randomization
Protocol: Hydrogels were administered as suspension in PTP buffer. Some cohorts were further treated with 20 μg human IL-2 (Peprotech, Rocky Hill, N.J.), intraperitoneally (I.P.), twice a day for 5 days. Mice were sacrificed 7 days after randomization (D0). Following sacrifice, tumor draining lymph nodes were isolated from both flanks and were dissociated mechanically to generate a single cell suspension at a cell concentration of 1×10^6 cells per sample. Cell suspensions were centrifuged at 300 g for 5 minutes. Supernatants were discarded and cells were resuspended in FACS buffer with 1 μg/ml Fc-Block and incubated at 4° C. for 10 minutes in the dark. Surface marker antibody mixtures (antibody concentration: 10 μg/mL) in FACS buffer were added to each sample and samples were incubated in the dark at 4° C. for 30 minutes. Cells were centrifuged at 300 g for 5 minutes and supernatants were discarded. Cells were washed and then resuspended with FACS buffer before cytometer collection.
After collection, FACS data was analyzed using FlowJo Version 10.6.1. Compensation was digitally adjusted using single antibody-stained beads. Samples with less than 90% viability, as determined by LiveDead cell staining, were excluded from the analysis. Cells were defined using the following gating strategy: • 1) Ly-6C^+ antigen presenting cells: FSC-H/FSC-A Singlets/LiveDead^−/CD45^+/CD3^−/CD335^−/Ly-6C^+ • 2) Ly-6C^+ MHCII^+ antigen presenting cells: FSC-H/FSC-A Singlets/LiveDead^−/CD45^+/CD3^−/CD335^−/Ly-6C^+/IA/IE (MHCII)^+ • 3) CD8^+ T cells: FSC-H/FSC-A Singlets/LiveDead^−/CD45^+/CD3^+/CD8 single positive • 4) Ly-6C^+ CD8^+ T cells: FSC-H/FSC-A Singlets/LiveDead^−/CD45^+/CD3^+/CD8 single positive/Ly-6C^+

[3] = 1 h post-treatment, single intratumoral dose
[4] = 3 h post-treatment, single intratumoral dose
[5] = 6 h post-treatment, single intratumoral dose
[6] = 10 h post-treatment, single intratumoral dose
[7] = 24 h post-treatment, single intratumoral dose

## CCOCc1nc2c(N)nc3ccccc3c2n1CC(C)(C)O [Compound 4, Resiquimod]
[1]; [3]
  CCL2/MCP-1 plasma level, Mean: 357.83 pg/mL
  IL-6 plasma level, Mean: 3618.87†, ‡ pg/mL
  TNFα plasma level, Mean: 830.84 pg/mL
[1]; 1 h post-treatment, single intratumoral dose (4: 20 μs; 13c: 50 μL)
  IFNγ plasma level, Mean: 4.04 pg/mL
[1]; [4]
  CCL2/MCP-1 plasma level, Mean: 4230.35†, ‡ pg/mL
  IL-6 plasma level, Mean: 1739.75†, ‡ pg/mL
  TNFα plasma level, Mean: 136.25 pg/mL
  IFNγ plasma level, Mean: 15.49†, ‡ pg/mL
[1]; [5]
  CCL2/MCP-1 plasma level, Mean: 1039.17†, ‡ pg/mL
  IL-6 plasma level, Mean: 88.59 pg/mL
  TNFα plasma level, Mean: 35.49 pg/mL
  IFNγ plasma level, Mean: 40.72†, ‡ pg/mL
[1]; [6]
  CCL2/MCP-1 plasma level, Mean: 847.07† pg/mL
  IL-6 plasma level, Mean: 154.51 pg/mL
  TNFα plasma level, Mean: 43.32 pg/mL
  IFNγ plasma level, Mean: 28.19†, ‡ pg/mL
[1]; [7]
  CCL2/MCP-1 plasma level, Mean: 92.58 pg/mL
  IL-6 plasma level, Mean: 44.71 pg/mL
  TNFα plasma level, Mean: 9.74 pg/mL
  IFNγ plasma level, Mean: 2.38 pg/mL
[2]; injected right flank tumor
  Frequency of CD4^+ T cells of CD3^+ T cells, Mean: 69.1%
  Frequency of CD8^+ T cells of CD3^+ T cells, Mean: 29.23%
  Frequency of IA-IE (MHCII)^+ antigen presenting cells of Ly-6C^+ antigen presenting cells, Mean: 69.63%
  Frequency of Ly-6C^+ T cells of CD8^+ T cells, Mean: 53.7%
  Frequency of Ly-6C^+ antigen presenting cells of non-T cells, Mean: 2.5%
[2]; uninjected left flank tumor
  Frequency of CD4^+ T cells of CD3^+ T cells, Mean: 69.25%
  Frequency of CD8^+ T cells of CD3^+ T cells, Mean: 29%
  Frequency of IA-IE (MHCII)^+ antigen presenting cells of Ly-6C^+ antigen presenting cells, Mean: 35.05%
  Frequency of Ly-6C^+ T cells of CD8^+ T cells, Mean: 48%
  Frequency of Ly-6C^+ antigen presenting cells of non-T cells, Mean: 7.8%
